One data set deals with HepG2 cells. Put plainly: Cell viability (CellTiter96 AQueous One) in HepG2 cells. Type of data set: cell-based, human. The settings on record: all tested doses, 48 hr. The method, then:
(§1) After the above treatments, 50 μl of culture media were collected, and subjected to glucose analysis using Molecular Probes Amplex Red glucose assay kit (Cat #A22189) according to the manufacturer's protocol. Cell numbers or viability in the culture plate after the above compound treatments were determined using Promega's CellTiter96® AQueous One Solution Cell Proliferation Assay kits, according to the manufacturer's protocol and instructions. In brief, after removing 50 μl of culture media for glucose assay, cells were incubated with AQueous One solution (25 μl stock solution and 50 μl prewarmed PBS/per well) at 37° C. for 1 hour, and the absorbance of OD490 nm in each sample was determined by the Bio-Tek microplate reader. Cell viability in culture wells were determined by the subtraction of OD490 nm in cultured cells with the OD490 nm in plain culture media (without seeding of cells). Glucose production in the culture cells were obtained by normalizing the glucose concentration in culture media by cell viability in each well. At least 3 samples per each treatment were examined for the above analysis. Data are presented as Mean±SEM of those samples. Experiments were repeated at least twice.

A further data set relates to H4IIE cells. Put plainly: Glucose production assay in H4IIE cells. Type of data set: cell-based, rat. The method, then: Equal numbers of Human HepG2 or rat H4IIE cells (1-1.5×10^5 cells/well) were seeded on 96 well plates in 10% FBS-containing media for 24 hr. Cells were then washed twice with PBS, and treated with various concentrations of compounds, metformin or insulin in 100 μl of glucose production media (glucose-free, phenol red-free DMEM media supplemented with 20 mM sodium lactate, 2 mM sodium pyruvate and 5 mM HEPES) at 37° C. for 24 hr (H4IIE cells only) or 48 hr (HepG2 cell only). Cells were also incubated with 0.24% DMSO (the maximal volume of DMSO solvent used in the experiments).
as §1
The half maximal inhibitory concentration (IC50 values) of Compound #43 or metformin for the inhibition of glucose production were determined using the ED50 Plus v1.0 online software.

Data set [1] deals with PDK1/AKT/FOXO1. As to the kind of experiment: Western blot of PDK1/AKT/FOXO1 in serum-starved HepG2 cells. It is filed as cell-based, human. The method, then: HepG2 cells were seeded on 6-well plates (7×10^5 cells/well) and cultured in 10% FBS EMEM media for 30 hr. Then these cells were washed twice with PBS to remove residual sera, and serum-starved in plain EMEM media overnight. […]
After the above described treatments, cultured HepG2 and AML-12 cells were rinsed twice with ice-cold PBS and lysed in ice-cold RIPA buffer containing complete proteinase and phosphatase inhibitors (Thermo-Fisher Scientific, Waltham, Mass.) on ice for 30 min. Cell lysates were collected using a cell scraper and transfer pipette, and then centrifuged at 12000×g for 30 min at 4° C. to remove the DNA pellet and obtain the protein extract. Protein levels in the supernatant of these cell lysates were determined using the Pierce Micro-BCA protein assay kit (Thermo Scientific-Piece Biotechnology, Rockford, Ill.) according to the manufacturer's protocol.
(§2) One hundred micrograms of liver tissue proteins or five micrograms of total proteins from control- and compound(s)-treated HepG2 or AML-12 cells were subjected to SDS-PAGE gel separation and then transferred to PVDF membranes, as described previously (Reddy et al. 2008 Science). Membranes were blocked in a phosphate-buffered saline (PBS) containing 5% (w/v) of bovine serum albumin (Sigma, St. Louis, Mo.) and incubated with specific primary antibodies followed by the incubation with HRP-conjugated anti-mouse or anti-rabbit secondary antibodies (1:5000 dilution, Cell Signaling Inc.). All primary antibodies except Gapdh (Li-COR, Lincoln, Nebr.) were purchased from Cell Signaling Inc. Positive signals on the membrane blots were detected using the Amersham's enhanced chemiluminescence Western Blotting Prime Detection reagents (GE Healthcare Lifescience, Pittsburgh, Pa.). Images of these luminescence signals on the membrane blots were captured using the LI-COR Odyssey Fc Image system (Lincoln, Nebr.). The same membrane blot was stripped and re-blotted with another antibody as described in the GE WB ECL-prime-detection protocol (GE healthcare Lifescience, Pittsburgh, Pa.). Protein band densities in the Western blots were determined using the NIH ImageJ software and then normalized by Gapdh or Actb/ACTB level in each sample. Data are presented as mean±SEM of three samples per each group.

The subject of data set [2] is Pdk1/Akt/Foxo1. Put plainly: Western blot of Pdk1/Akt/Foxo1 signaling in livers of Lepr^db/db mice. It is filed as in vivo, mouse. The settings on record: 25 μg selenium/kg ip daily, 52 days (FIG. 12). The method, then:
Male Lepr^db/db mice (C57BL/6J strain, purchased from The Jackson Laboratory) at postnatal day 38 were intraperitoneally injected daily with physiological saline ([…]) containing 0.2% DMSO, Compound #43 (25 μg selenium or sulfur equivalent of each compound per kilogram body weight, diluted in sterile physiological saline) for 52 days. After the treatment, livers were collected and stored at −80° C.
Frozen liver tissues were minced in sterile ice-old PBS containing complete proteinase and phosphatase inhibitors (Thermo-Fisher Scientific, Waltham, Mass.) and subjected to homogenization using a tissue homogenizer (Thermo-Fisher Scientific, Waltham, Mass.). These tissue homogenates were diluted in Themo-Fisher's premade RIPA buffer (1 part homogenate/2 part of RIPA buffer) containing complete proteinase/phosphatase inhibitors to extract the proteins. Proteins in the homogenates were extracted in RIPA buffer at 4° C. overnight. These overnight-extracted protein lysates were centrifuged at 12000×g for 30 min at 4° C., and the protein levels in the supernatant of these tissue lysates were determined using the Pierce Micro-BCA protein assay kit (Thermo Scientific-Piece Biotechnology, Rockford, Ill.) according to the manufacturer's protocol.
as §2
For orientation: Immunoblotting shows a protein as a band on a membrane.

For `C[Se]C[C@H]1O[C@@H](n2cnc3c(N)ncnc32)C(OC(C)=O)C1OC(C)=O` (stereo partly drawn) [Compound #43, Adenosine, 5′-Se-methyl-5′-selino-, 2′,3′-diacetate], in the data set with HepG2 cells, the cell viability result is “no significant decrease of cell viability”. Also, the concentration for half-maximal inhibition (IC50) (commonly the concentration needed to halve the response being measured) in the data set with H4IIE cells (Rattus norvegicus, H4IIE, 24 h, read-out: IC50 (inhibition of glucose production)) amounted to 17.8 µM. In the data set on H4IIE cells (cultured rat liver cells), the “potency relative to metformin in inhibition of glucose production” value is reported as “at least 15 times”. The “effect on glucose production in H4IIE cells” value in the data set with H4IIE cells (serum-free, 24 hr (FIG. 2)) was “dose-dependent decrease in glucose production”. Further, in the data set on PDK1/AKT/FOXO1 [1] (600 ppb), the “time of peak increase of pPDK1” value is on record as 60-90 minutes. Also, the “phosphorylated AKT at T308” value in the data set on PDK1/AKT/FOXO1 [1] (600 ppb, 30, 60, 90 minutes and 24 hr (FIG. 13C)) was “significant and transient increase of phosphorylated AKT at T308”. Further, in the data set with PDK1/AKT/FOXO1 [1] (600 ppb, 90 minutes and longer (FIG. 13E)), the “phosphorylated FOXO1 at T24” value is listed as “significantly increased”. For the same molecule, the “total AKT protein levels” value in the data set with PDK1/AKT/FOXO1 [1] (600 ppb, all tested time points) is given as “not significantly altered”. Besides, in the data set with PDK1/AKT/FOXO1 [1] (600 ppb, less than 24 hours), the “total Foxo1 protein levels” value is recorded as “no significant change in total FOXO1 protein levels”. In addition, the “total Foxo1 protein levels” value in the data set with PDK1/AKT/FOXO1 [1] (600 ppb, prolonged treatment 30 hr or 48 hr) is listed as “slight but statistically significant decrease of total FOXO1 proteins”. The pPDK1 protein level result with PDK1/AKT/FOXO1 [1] (600 ppb, serum-free, 30, 60, 90 minutes (FIG. 13B)) was “significant and transient increase of pPDK1”. For the same molecule, in the data set on Pdk1/Akt/Foxo1 [2], the “pAkt (Threonine 308) protein level in liver” value was “significantly elevated”, the “pFoxo1 (Serine 256) protein level in liver” value was “significantly elevated”, the “pPdk1 protein level in liver” value is listed as “significantly elevated” and the “total Akt levels in liver” value is given as “no significant change”.

The record behind these values is patent US11613552B2, “Pharmaceutical agents, compositions, and methods relating thereto” (Alltech, Inc., priority 2017, dated 2023).
